Tests used:
[1] = molecular target: human activated kallikrein enzyme (Homo sapiens, UniProt P03952); assay: Inhibition of human activated plasma kallikrein, fluorogenic peptide substrate (PFR-AMC) assay, 500 pM enzyme format; format: biochemical; settings: format with 500 pM activated kallikrein, 300 uM PFR-AMC, 30 min preincubation, 10 min reaction, room temperature; read-out: Primary Dose Response Assay: Average EC50
Description: Inhibitory Activity of Exemplary Compounds against Plasma Kallikrein.
Compounds were evaluated for inhibition of the human activated kallikrein enzyme in two formats of an assay employing a fluorogenic peptide substrate. In one assay format, the concentrations of reagents were as follows: 20 mM Tris pH 7.5, 1 mM EDTA, 150 mM sodium chloride, 0.1% PEG-400, 0.1% Triton X-100, 500 pM activated kallikrein enzyme, 300 uM Pro-Phe-Arg-7-amido-4-methylcoumarin (PFR-AMC) substrate. Prior to reaction initiation with substrate, enzyme and inhibitors were preincubated for 30 min at room temperature. After initiation with substrate, reactions were incubated for 10 min at room temperature and fluorescence emission at 460 nm from 380 nm excitation measured with a microplate reader. In another assay format, the concentrations of reagents were as follows: 20 mM Tris pH 7.5, 1 mM EDTA, 150 mM sodium chloride, 0.1% PEG-400, 0.1% Triton X-100, 5 pM activated kallikrein enzyme, 300 uM PFR-AMC substrate. Prior to reaction initiation with substrate, enzyme and inhibitors were preincubated for 30 min at room temperature. After initiation with substrate, reactions were incubated for 18 hr at room temperature and fluorescence emission at 460 nm from 380 nm excitation measured with a microplate reader.

plasma kallikrein = molecular target: T1, plasma kallikrein (Homo sapiens, UniProt P03952); assay: Neat human plasma assay (contact pathway-activated plasma, FXIIa, PFR-AMC substrate); format: biochemical; settings: sodium citrate human plasma, 78% final plasma, 10 nM human FXIIa, 100 μM PFR-AMC, room temperature
T1 construct: from tissue; host or cells: sodium citrate collected human plasma (78% final)
Description: Neat Human and Rat Plasma Assay
To analyze inhibition of plasma kallikrein in an ex vivo setting, the potency of compounds was measure in contact pathway-activated plasma assays. In a fluorogenic peptide substrate assay, test compounds dissolved in DMSO were added to sodium citrate collected human or rat plasma in a 96-well microplate. Alternatively, citrated plasma was collected from rats administered the compounds orally or by IV. 10 nM of human FXIIa (Enzyme Research Laboratories) diluted in PKa buffer (20 mM Tris-HCl, pH 7.5, 150 mM NaCl, 1 mM EDTA, 0.1% PEG-8000, and 0.1% Triton X-100) was added to the plasma, followed by the 100 μM of the profluorescent, synthetic plasma kallikrein substrate PFR-AMC (also diluted in PKa buffer). Final plasma concentration in the reaction was 78%. Fluorescence was immediately monitored by excitation/emission wavelengths of 360 nm/480 nm respectively over a period of 5 minutes in a microplate reader. The resulting linear increase in fluorescence emission (reflecting PKa proteolysis of PFR-AMC substrate) was fit to extract a proteolytic rate (fluorescent units over time), and this rate was subsequently plotted against compound inhibitor concentration. Resulting plots were fit to a standard 4-parameter IC50/IC90 equation to determine min/max values, IC50/90, and slope. All experimental steps were performed at room temperature.

human activated kallikrein enzyme, sequence (P03952 391-638 limits assumed): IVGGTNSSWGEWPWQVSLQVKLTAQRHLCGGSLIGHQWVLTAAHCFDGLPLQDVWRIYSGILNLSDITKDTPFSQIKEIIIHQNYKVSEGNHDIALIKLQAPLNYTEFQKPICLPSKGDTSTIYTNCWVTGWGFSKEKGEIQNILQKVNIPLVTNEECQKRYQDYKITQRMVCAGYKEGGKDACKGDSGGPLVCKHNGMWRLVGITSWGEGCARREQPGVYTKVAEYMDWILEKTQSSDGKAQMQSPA
human activated kallikrein enzyme, sequence (P03952 20-390 partner limits assumed): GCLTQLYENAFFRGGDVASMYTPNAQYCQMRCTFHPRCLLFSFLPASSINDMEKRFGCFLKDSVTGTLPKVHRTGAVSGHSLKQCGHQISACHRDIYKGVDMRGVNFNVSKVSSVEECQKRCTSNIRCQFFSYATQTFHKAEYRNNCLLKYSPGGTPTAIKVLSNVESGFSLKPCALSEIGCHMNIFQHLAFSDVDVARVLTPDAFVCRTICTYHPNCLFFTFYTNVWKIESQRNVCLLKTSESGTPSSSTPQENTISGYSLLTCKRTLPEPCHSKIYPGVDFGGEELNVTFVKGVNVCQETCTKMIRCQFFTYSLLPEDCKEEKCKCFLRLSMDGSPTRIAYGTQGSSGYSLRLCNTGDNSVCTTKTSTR
T1 sequence (P03952 391-638 limits assumed): as the sequence (P03952 391-638 limits assumed) above
T1 sequence (P03952 20-390 partner limits assumed): as the sequence (P03952 20-390 partner limits assumed) above

SMILES | EC50 [1] [nM] | IC90 (plasma kallikrein) [nM]
O=C(Nc1cc(NCc2cn3cc(C4CC4)ccc3n2)ncn1)OCc1cc(Cl)ccc1-n1cnnn1 [Compound I-8, 5-chloro-2-(1H-tetrazol-1-yl)benzyl (6-(((6-cyclopropylimidazo[1,2-a]pyridin-2-yl)methyl)amino)pyrimidin-4-yl)carbamate] | < 5 | ≤ 2500
CC(OC(=O)Nc1cc(NCc2cn3cc(C4CC4)ccc3n2)ccn1)c1cc(Cl)ccc1-n1cnnn1 (stereo not drawn) [Compound I-21, 1-(5-chloro-2-(1H-tetrazol-1-yl)phenyl)ethyl (4-(((6-cyclopropylimidazo[1,2-a]pyridin-2-yl)methyl)amino)pyridin-2-yl)carbamate] | < 5 | 2500 to 7500
O=C(Nc1cc(OCc2cn3cc(C4CC4)ccc3n2)ccn1)OCc1cc(Cl)ccc1-n1cnnn1 [Compound I-12, 5-chloro-2-(1H-tetrazol-1-yl)benzyl (4-((6-cyclopropylimidazo[1,2-a]pyridin-2-yl)methoxy)pyridin-2-yl)carbamate] | < 5 | 7500 to 15000
O=C(NCc1cc(Cl)ccc1-n1cnnn1)Nc1cc(NCc2cn3cc(C4CC4)ccc3n2)ccn1 [Compound I-10, 1-(5-chloro-2-(1H-tetrazol-1-yl)benzyl)-3-(4-(((6-cyclopropylimidazo[1,2-a]pyridin-2-yl)methyl)amino)pyridin-2-yl)urea] | < 5 | 2500 to 7500
O=C(Nc1cc(NCc2cn3cc(C4CC4)ccc3n2)ccn1)OCc1cccc(Cl)c1 [Compound I-13, 3-chlorobenzyl (4-(((6-cyclopropylimidazo[1,2-a]pyridin-2-yl)methyl)amino)pyridin-2-yl)carbamate] | < 5 | 7500 to 15000
O=C(Nc1cc(NCc2cn3cc(C4CC4)ccc3n2)ncn1)OCc1cc(Cl)ccn1 [Compound I-26, (4-chloropyridin-2-yl)methyl (6-(((6-cyclopropylimidazo[1,2-a]pyridin-2-yl)methyl)amino)pyrimidin-4-yl)carbamate] | < 5 | ≤ 2500

Reference: US20240199612A1, “IMIDAZOPYRIDINYL INHIBITORS OF PLASMA KALLIKREIN” (SHIRE HUMAN GENETIC THERAPIES, INC., priority 2021, published 2024)
